Reference: patent US20250264461A1, “NANOVESICLE COMPRISING HETERODIMERIC G-PROTEIN COUPLED RECEPTOR, METHOD FOR PREPARING NANOVESICLE, FIELD EFFECT TRANSISTOR-BASED TASTE SENSOR COMPRISING NANOVESICLE, AND METHOD FOR MANUFACTURING TASTE SENSOR” (Seoul National University R&DB Foundation, priority 2013, published 2025)
Each block holds one compound with its values, some of them ahead of it. Peptide text beside a SMILES is read from it.

Tests used:
[1] = molecular target: T1, sweet taste substance receptor protein (hTAS1R2 and hTAS1R3) (Homo sapiens, UniProt Q7RTX0+Q8TE23); assay: nanovesicle based field effect transistor taste sensor, real-time source-drain current / conductance; type: biochemical; conditions: for signal change: 100 mM added
T1 construct: HA (N); expressed in transfected cells
T1 sequence (Q8TE23 20-839): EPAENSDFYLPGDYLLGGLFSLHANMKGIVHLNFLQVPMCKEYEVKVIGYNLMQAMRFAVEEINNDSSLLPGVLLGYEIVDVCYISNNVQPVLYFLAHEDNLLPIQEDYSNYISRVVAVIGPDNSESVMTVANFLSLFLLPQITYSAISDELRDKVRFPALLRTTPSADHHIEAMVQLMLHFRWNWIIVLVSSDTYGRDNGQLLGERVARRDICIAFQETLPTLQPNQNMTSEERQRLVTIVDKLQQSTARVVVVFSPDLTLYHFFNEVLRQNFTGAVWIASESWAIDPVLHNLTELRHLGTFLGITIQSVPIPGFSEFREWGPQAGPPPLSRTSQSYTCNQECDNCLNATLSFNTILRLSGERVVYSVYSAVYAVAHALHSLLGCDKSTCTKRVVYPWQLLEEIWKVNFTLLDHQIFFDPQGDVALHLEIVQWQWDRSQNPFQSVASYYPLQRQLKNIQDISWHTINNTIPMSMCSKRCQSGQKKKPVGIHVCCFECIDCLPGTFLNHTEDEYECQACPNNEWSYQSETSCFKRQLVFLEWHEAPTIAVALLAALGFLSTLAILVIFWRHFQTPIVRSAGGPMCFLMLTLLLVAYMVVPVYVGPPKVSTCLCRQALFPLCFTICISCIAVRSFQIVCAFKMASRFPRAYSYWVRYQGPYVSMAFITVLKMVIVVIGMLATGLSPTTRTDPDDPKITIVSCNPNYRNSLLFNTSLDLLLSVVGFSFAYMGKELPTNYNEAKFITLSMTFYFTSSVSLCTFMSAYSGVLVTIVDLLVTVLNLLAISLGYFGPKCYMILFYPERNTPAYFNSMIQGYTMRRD
T1 sequence (Q7RTX0 21-852): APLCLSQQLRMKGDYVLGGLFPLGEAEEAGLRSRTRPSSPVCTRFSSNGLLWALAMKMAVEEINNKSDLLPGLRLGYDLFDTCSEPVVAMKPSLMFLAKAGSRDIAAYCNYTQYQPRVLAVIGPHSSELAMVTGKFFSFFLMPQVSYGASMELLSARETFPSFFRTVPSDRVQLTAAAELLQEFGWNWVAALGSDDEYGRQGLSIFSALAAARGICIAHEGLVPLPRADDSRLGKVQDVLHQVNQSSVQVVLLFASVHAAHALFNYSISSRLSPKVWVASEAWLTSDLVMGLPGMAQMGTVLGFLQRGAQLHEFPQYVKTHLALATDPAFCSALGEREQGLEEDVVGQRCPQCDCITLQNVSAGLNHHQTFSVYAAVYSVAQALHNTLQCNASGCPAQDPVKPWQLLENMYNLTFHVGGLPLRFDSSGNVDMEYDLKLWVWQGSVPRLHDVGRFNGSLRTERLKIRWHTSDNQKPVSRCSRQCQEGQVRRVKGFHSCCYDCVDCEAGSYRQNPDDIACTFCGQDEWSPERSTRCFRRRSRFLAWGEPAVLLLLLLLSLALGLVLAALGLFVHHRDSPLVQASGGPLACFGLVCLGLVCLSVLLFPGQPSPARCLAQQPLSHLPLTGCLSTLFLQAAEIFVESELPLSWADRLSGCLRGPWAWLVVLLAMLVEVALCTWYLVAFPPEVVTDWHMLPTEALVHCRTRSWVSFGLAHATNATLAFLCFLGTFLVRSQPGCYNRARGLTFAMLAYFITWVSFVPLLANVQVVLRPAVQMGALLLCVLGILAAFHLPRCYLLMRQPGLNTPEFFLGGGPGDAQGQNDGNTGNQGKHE

[2] = molecular target: T1, sweet taste substance receptor protein (hTAS1R2 and hTAS1R3); assay: as above; type: biochemical; conditions: for fit of sensor signals to the hill equation model: FIG. 4C; for signal generating from the taste sensor (sensitivity ΔG/G0): FIG. 3C
Description: A sweet taste substance (Sigma Aldrich, USA) with a 1 mM concentration was dissolved into PBS (phosphate buffered saline; Gibco, USA) containing 2 mM CaCl2 therein. The resulting solution was sequentially diluted 1/10 times to acquire a diluent. The diluent was exposed to the nanovesicle based field effect transistor manufactured in the embodiment 2. A current between the source electrode and drain electrode was measured in a real time manner to check a reaction magnitude. A sensitivity ΔG/G0 of a sweet taste substance relative to sucrose in the nanovesicle based field effect transistor was measured in a real time manner.

[3] = molecular target: T2, heterodimeric receptor including the hTAS1R2 and hTAS1R3 (Homo sapiens, UniProt Q7RTX0+Q8TE23); assay: Ca2+ dependent fluorescence signal in transformed HEK-293 cell line; type: cell-based; conditions: 10 mM sucrose added, Fura 2-AM, ratio of 340/380 nm stimulation, emission 510 nm, FIG. 2C
T2 construct: HA (N); expressed in transfected cells
T2 sequence (Q8TE23 20-839): T1 sequence (Q8TE23 20-839)
T2 sequence (Q7RTX0 21-852): T1 sequence (Q7RTX0 21-852)
Description: (§1) A signal transfer via a sweet taste substance of each of the nanovesicle and HEK-293 cell was checked wherein the HEK-293 cell has the expressed heterodimeric receptor including the hTAS1R2 and hTAS1R3 manufactured in the embodiment 1, and the nanovesicle is separated from the HEK-293 cell.
(§2) For this, the transformed HEK-293 cell line was incubated for three or more days. Then, 5 μm Fura 2-AM (acetoxymethyl)(calcium indicator, Invitrogen) was loaded on the cells in an imaging buffer solution (NaCl 140 mM, KCl 5 mM, MgCl2 1 mM, CaCl2 2 mM, HEPES 10 mM, Glucose 10 mM, 0.1% Pluronic F-127, pH 7.4). A non-specific esterase residing in the cell performs hydrolysis for an AM ester group to be changed into a form sensitive to Ca^2+ ions. […]
(§3) After three times cleaning using respective solutions, a ligand and ATP (100 uM) for a Ca^2+ dependent fluorescence signal was injected thereto, and, dual stimulations (340 nm, and 380 nm) were applied thereto. Thereafter, a fluorescence signal due to Ca^2+ at 510 nm was measured using a spectrofluorophotometer. The fluorescence signal was obtained at 2 seconds intervals. A final result was shown as a ratio between fluorescence strengths resulting from the dual stimulations.

[4] = molecular target: T3, nanovesicle including TAS1R2 and TAS1R3 (Homo sapiens, UniProt Q7RTX0+Q8TE23); assay: Ca2+ dependent fluorescence signal in nanovesicle separated from transformed HEK-293 cell line; type: biochemical; conditions: 10 mM sucrose added, FIG. 2F
T3 construct: HA (N); expressed in transfected cells
T3 sequence (Q8TE23 20-839): T1 sequence (Q8TE23 20-839)
T3 sequence (Q7RTX0 21-852): T1 sequence (Q7RTX0 21-852)
Description: as §1, §2, §3

signal change ([1]; FIG. 4B): no signal change
SMILES: O=C[C@H](O)[C@@H](O)[C@H](O)[C@H](O)C(=O)O [D-glucuronic acid]

fit of sensor signals to the hill equation model [2]: comply with the hill equation model
sensitivity as a working substance relative to sucrose ([2]; compared with sucrose): more sensitive
SMILES: COC(=O)[C@H](Cc1ccccc1)NC(=O)[C@@H](N)CC(=O)O [aspartame] (H-Asp-Phe-OMe)

signal change ([1]; FIG. 4B): no signal change
SMILES: OC[C@H]1O[C@@H](O[C@H]2[C@H](O)[C@@H](O)[C@H](O)O[C@@H]2CO)[C@H](O)[C@@H](O)[C@@H]1O [cellobios]

fit of sensor signals to the hill equation model [2]: comply with the hill equation model
SMILES: O=C(CO)[C@@H](O)[C@H](O)[C@H](O)CO [fructose]

fluorescence emission strength [3]: relatively increases
fluorescence emission strength [4]: relatively increases
signal generating from the taste sensor (sensitivity ΔG/G0) ([2]; 100 uM concentration): decreases
signal generating from the taste sensor (sensitivity ΔG/G0) ([2]; 500 uM concentration): rapidly decreases
fit of sensor signals to the hill equation model [2]: comply with the hill equation model
reaction magnitude decrease ([1]; 500 uM added, FIG. 4B): about 5%
detection in real samples ([1]; 1 mM concentration, contained in coffee and Darjeeling tea, FIG. 4D): may be detected
SMILES: OC[C@H]1O[C@@](CO)(O[C@H]2O[C@H](CO)[C@@H](O)[C@H](O)[C@H]2O)[C@@H](O)[C@@H]1O [sucrose]
